Earlier results on nine compounds are cited in publication PMC3499999, “Advances in the Treatment of Malaria” (Mediterranean Journal of Hematology and Infectious Diseases, 2012).

Details of series [1]: method as in PMID 10661809. The following applies: high intramuscular doses, oil-based, beagle dogs.
Details of series [2]: method as in PMID 20863871. The conditions noted are these: animals, only for long drug exposure; artemether and arteether intramuscularly, artelinic acid orally.
For the next series, the system named is P. falciparum. Details: method as in earlier work. The following applies: 3-days course.
Details of series [3]: method as in PMID 22540954.
Series [4] deals with severe malaria. The arrangement: method as in PMID 19059639. The conditions noted are these: rectal, over placebo, p=0.0013.
For series [5], the system named is severe malaria. The conditions noted are these: artesunate versus quinine, systematic reviews, regardless of age and geographic differences.
Assay in series [6]: not given
The source holds these as a separate data set.

Details of series [7]: method as in PMID 17461742.
The conditions of series [8]: in vivo.

Take `CCO[C@H]1O[C@@H]2O[C@@]3(C)CC[C@H]4[C@H](C)CC[C@@H]([C@H]1C)[C@@]24OO3` [arteether]: the QTc prolongation entry in [1] was “reported at significant level”. In addition, the neurotoxicity result in [2] was “Fatal neurotoxicity”.

Turning to `C[C@H]1[C@@H](OCc2ccc(C(=O)O)cc2)O[C@@H]2O[C@@]3(C)CC[C@H]4[C@H](C)CC[C@@H]1[C@@]24OO3` [artelinic acid], the neurotoxicity result in [2] was “Fatal neurotoxicity”. For `CO[C@H]1O[C@@H]2O[C@@]3(C)CC[C@H]4[C@H](C)CC[C@@H]([C@H]1C)[C@@]24OO3` [artemether], the half-life was 2 to 4 h. Moreover, the QTc prolongation entry in series [1] is given as “reported at significant level”. Moreover, in series [2], the neurotoxicity result was “Fatal neurotoxicity”. On to `C[C@@H]1CC[C@H]2[C@@H](C)C(=O)O[C@@H]3O[C@@]4(C)CC[C@@H]1[C@]32OO4` [artemisinin], for which, in the series with P. falciparum, the “reduction of parasite burden” value is 90%. Take `C[C@H]1[C@H](OC(=O)CCC(=O)O)O[C@@H]2O[C@@]3(C)CC[C@H]4[C@H](C)CC[C@@H]1[C@@]24OO3` [artesunate]: the half-life was less than 1 h. Further, in series [3], the “median elimination T ½” value was 0.25 [0.11 – 1.82] hours. Besides, the “death or permanent disability, RR” value in the series on severe malaria [4] is 0.49. The “case fatality rate, RR” value in the series with severe malaria [5] is recorded as 0.71.

Take `COc1cc(NC(C)CCCN/C(C)=C2\CCOC2=O)c2ncccc2c1` (stereo not drawn) [buloquine]: in series [6], the “oxidative toxicity compared with primaquine” value is “less oxidative toxicity”.

For the compound `COc1cc(NC(C)CCCN)c2ncccc2c1` (stereo not drawn) [primaquine], the main safety concern result in [6] (patients with glucose-6-phosphate dehydrogenase deficiency) was “risk of severe intravascular haemolysis”. `COc1cc(C)c2c(Oc3cccc(C(F)(F)F)c3)c(OC)cc(NC(C)CCCN)c2n1` (stereo not drawn) [tefenoquine, tafenoquine]: in series [7], the “half-life compared with primaquine” value is recorded as “longer half-life”. On to Atovaquone-proguanil, for which, in series [8], the “risk of birth defects relative to the general population” value is reported as no more than 3 times.

The half-life is how long it takes for the measured level to halve.
